The values that follow come from patent US10029986B2, “Alkynyl pyridine-substituted amide compound and pesticide” (NISSAN CHEMICAL INDUSTRIES, LTD., priority 2014, dated 2018).

Where only a bound is given, the exact number is not on record here.

Assay [1] deals with Erysiphe polygoni (synonym: Erysiphe betae). Briefly: Test on the preventive effect against cucumber powdery mildew. In kind it is in vivo. The note with it: 216 h, test solution A 500 ppm, 5 ml per pot sprayed, cucumber cotyledon stage, 9 days after inoculation. A digest of the protocol:
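Cucumber (Sagami Hanjiro) at cotyledon stage sprayed with 500 ppm compound (diluted from 20 wt% emulsifiable concentrate), air-dried, then inoculated with Erysiphe polygoni conidia. Kept 9 days at 20 °C in greenhouse; lesion area ratio scored in duplicate, control value = [1−(treated/untreated lesion ratio)]×100.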

The subject of the next assay is Botrytis cinerea. In words: Test on the preventive effect against cucumber gray mold (mycelium inoculation). In kind it is in vivo. Particulars: 48 h, test solution A 500 ppm, 5 ml per pot, cucumber cotyledon, agar block inoculation, 2 days at 20° C. A digest of the protocol: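 Cucumber cotyledons (Sagami Hanjiro) were sprayed with 5 ml per pot of a 500 ppm dilution of a 20 wt % emulsifiable concentrate. Next day, mycelial agar plugs of Botrytis cinerea were placed on cotyledons, held humid at 20° C for 2 days. Lesion proportion gave the control value; duplicate.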

In the next assay the test system is Sclerotinia sclerotiorum. Briefly: Test on the preventive effect against cucumber stem rot. Format: in vivo. The note with it: 48 h, test solution A 500 ppm, 5 ml per pot, agar block inoculation, 2 days at 20° C. A digest of the protocol: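 Cucumber (Sagami Hanjiro) at cotyledon stage sprayed with 5 ml/pot of 500 ppm compound from a 20 wt % emulsifiable concentrate, air-dried, then inoculated on seed leaves with agar blocks of S. sclerotiorum grown on PDA. Kept humid at 20° C for 2 days; lesion proportion scored and control value calculated, in duplicate.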

The next assay has as its system Asperaillus niger. In words: Test on the antifungal activity against Asperaillus niger. Format: cell-based. Particulars: 48 h; test solution B 100 ppm, 10 μl per well, 96 well plate, 25° C. dark, 2 days after treatment; read-out: efficacy (flora area ratio relative to non-treated well). How it is done:
Compounds of the present invention were dissolved in dimethyl sulfoxide to prepare 1 wt % solutions. Then, distilled water was added to dilute the solutions to the prescribed concentration (100 ppm), and the obtained solutions were used in the following the Test Examples 9 to 12. 60 μl of a potato dextrose 1% agar medium was added to each well of a 96 well plate, and 30 μl of sterilized water containing spores of Asperaillus niger (10 spores/3 μl) was added to each well. Further, 10 μl per well of test solution B of the compounds of the present invention was added, and the plate was left at rest at 25° C. under dark conditions. 2 days after treatment, the flora area ratio (%) was determined to calculate the efficacy (%) relative to the non-treated well in accordance with the following formula. Efficacy (%)=[1−(flora area ratio in treated plot/flora area ratio in non-treated well)]×100

In assay [2] the test system is Southern root-knot nematode (Meloidogyne incoqnita). Briefly: Insecticidal test against Southern root-knot nematode (eggs, 96 well plate). Format: in vivo. Particulars: 96 h, test solution B 100 ppm, 10 μl per well, 25° C. dark, 4 days after treatment, read-out: efficacy (unhatched eggs + inactive larvae relative to non-treated). How it is done: (§1) Compounds of the present invention were dissolved in dimethyl sulfoxide to prepare 1 wt % solutions. Then, distilled water was added to dilute the solutions to the prescribed concentration (100 ppm), and the obtained solutions were used in the following the Test Examples 9 to 12. 60 μl of a potato dextrose 1% agar medium was added to each well of a 96 well plate, and 30 μl of sterilized water containing eggs of Southern root-knot nematode (Meloidogyne incoqnita) (10 eggs/3 μl) was added to each well. Further, 10 μl per well of test solution B of the compounds of the present invention was added, and the plate was left at rest at 25° C. under dark conditions.

For assay [3], the system named is Barber pole worm (Haemonchus contortus). Briefly: Insecticidal test against Barber pole worm (eggs, 96 well plate). The note with it: 96 h, test solution B 100 ppm, 10 μl per well, 25° C. dark, 4 days after treatment, read-out: efficacy (unhatched eggs and inactive larvae relative to non-treated). In kind it is in vivo. How it is done:
as §1, with “Barber pole worm (Haemonchus contortus)” for “Southern root-knot nematode (Meloidogyne incoqnita)”

Consider `COC(c1ncc(C#CC2CC2)cc1Cl)C(C)NC(=O)c1cccnc1C(F)F` (stereo not drawn) [3-021], for which the pest or weed control at 500 µg/mL (in assay [1]; with Botrytis cinerea; with Sclerotinia sclerotiorum) was at least 70% throughout. Also, the inhibition of growth at 100 µg/mL in the assay with Asperaillus niger was at least 50%. The pest or weed control at 100 µg/mL in assay [2] and in assay [3] was at least 50% throughout.

In the case of `Cn1cc(C(=O)NCC(F)(F)c2ncc(C#CC3CC3)cc2Cl)c(C(F)F)n1` [8-003], the pest or weed control at 500 µg/mL (in assay [1]; in the assay on Botrytis cinerea; with Sclerotinia sclerotiorum) was at least 70% in each case. In addition, the inhibition of growth at 100 µg/mL with Asperaillus niger was at least 50%. In addition, the pest or weed control at 100 µg/mL in assay [2] and in assay [3] was at least 50% in each case.

Consider `CC(CNC(=O)c1cccnc1Cl)c1ncc(C#CC2CC2)cc1Cl` (stereo not drawn) [3-005], for which the pest or weed control at 500 µg/mL (in assay [1]; in the assay with Botrytis cinerea; in the assay with Sclerotinia sclerotiorum) was at least 70% each time. The inhibition of growth at 100 µg/mL in the assay with Asperaillus niger was at least 50%. The pest or weed control at 100 µg/mL in assay [2] and in assay [3] was at least 50% each time.

In the case of `CC(C)(CNC(=O)c1cccnc1C(F)F)c1ncc(C#CC2CC2)cc1Cl` [3-007, N-[2-[3-chloro-5-(cyclopropylethynyl)pyridin-2-yl]-2-methylpropyl]-2-(difluoromethyl)nicotinamide], the pest or weed control at 500 µg/mL (in assay [1]; with Botrytis cinerea; with Sclerotinia sclerotiorum) was at least 70% throughout. Also, the inhibition of growth at 100 µg/mL in the assay with Asperaillus niger was at least 50%. For the same compound, the pest or weed control at 100 µg/mL in assay [2] and in assay [3] was at least 50% throughout.

With `O=C(NCC(c1ncc(C#CC2CC2)cc1Cl)C1CC1)c1cccnc1C(F)F` (stereo not drawn) [3-008], the pest or weed control at 500 µg/mL (in assay [1]; in the assay with Botrytis cinerea; in the assay with Sclerotinia sclerotiorum) was at least 70% each time. Further, in the assay on Asperaillus niger, the inhibition of growth at 100 µg/mL is at least 50%. The pest or weed control at 100 µg/mL in assay [2] and in assay [3] was at least 50% throughout.

Take `O=C(NCCc1ncc(C#CC2CC2)cc1Cl)c1ccccc1C(F)(F)F` [1-002]: the pest or weed control at 500 µg/mL (in assay [1]; in the assay on Botrytis cinerea; in the assay with Sclerotinia sclerotiorum) was at least 70% in each case. The inhibition of growth at 100 µg/mL with Asperaillus niger is at least 50%. Further, the pest or weed control at 100 µg/mL in assay [2] and in assay [3] was at least 50% each time.

As for `COC(c1ncc(C#CC2CC2)cc1Cl)C(C)NC(=O)c1cn(C)nc1C(F)F` (stereo not drawn) [8-028, N-[2-[3-chloro-5-(cyclopropylethynyl)pyridin-2-yl]-2-methoxy-1-methylethyl]-3-difluoromethyl-1-methyl-1H-pyrazole-4-carboxamide], the pest or weed control at 500 µg/mL (in assay [1]; with Botrytis cinerea; in the assay with Sclerotinia sclerotiorum) was at least 70% in each case. Further, the inhibition of growth at 100 µg/mL with Asperaillus niger was at least 50%. Besides, the pest or weed control at 100 µg/mL in assay [2] and in assay [3] was at least 50% in each case.

Take `CSC(CNC(=O)c1cccnc1C(F)F)c1ncc(C#CC2CC2)cc1Cl` (stereo not drawn) [3-020]: the pest or weed control at 500 µg/mL (in assay [1]; in the assay on Botrytis cinerea; with Sclerotinia sclerotiorum) was at least 70% throughout. The inhibition of growth at 100 µg/mL with Asperaillus niger is at least 50%. Also, the pest or weed control at 100 µg/mL in assay [2] and in assay [3] was at least 50% each time.

`O=C(NCCc1ncc(C#CC2CC2)cc1Cl)c1cccnc1C(F)F` [3-001, N-[2-[3-chloro-5-(cyclopropylethynyl)pyridin-2-yl]ethyl]-2-(difluoromethyl)nicotinamide]: the pest or weed control at 500 µg/mL (in assay [1]; in the assay with Botrytis cinerea; in the assay on Sclerotinia sclerotiorum) was at least 70% each time. For the same compound, the inhibition of growth at 100 µg/mL in the assay with Asperaillus niger was at least 50%. Also, the pest or weed control at 100 µg/mL in assay [2] and in assay [3] was at least 50% each time.

As to `CSC(CNC(=O)c1ccccc1C(F)(F)F)c1ncc(C#CC2CC2)cc1Cl` (stereo not drawn) [1-021], the pest or weed control at 500 µg/mL (in assay [1]; in the assay on Botrytis cinerea; in the assay with Sclerotinia sclerotiorum) was at least 70% each time. The inhibition of growth at 100 µg/mL in the assay on Asperaillus niger was at least 50%. The pest or weed control at 100 µg/mL in assay [2] and in assay [3] was at least 50% each time.

As for `CC(C)(C)C#Cc1cnc(CCNC(=O)c2cccnc2C(F)F)c(Cl)c1` [3-002], the pest or weed control at 500 µg/mL (in assay [1]; in the assay on Botrytis cinerea; in the assay with Sclerotinia sclerotiorum) was at least 70% in each case. In addition, the inhibition of growth at 100 µg/mL with Asperaillus niger was at least 50%. Also, the pest or weed control at 100 µg/mL in assay [2] and in assay [3] was at least 50% each time.

With `CC(CNC(=O)c1cccnc1C(F)F)c1ncc(C#CC2CC2)cc1Cl` (stereo not drawn) [3-006], the pest or weed control at 500 µg/mL (in assay [1]; with Botrytis cinerea; with Sclerotinia sclerotiorum) was at least 70% in each case. Moreover, the inhibition of growth at 100 µg/mL with Asperaillus niger is at least 50%. For the same compound, the pest or weed control at 100 µg/mL in assay [2] and in assay [3] was at least 50% each time.

Consider `CC(C)(CNC(=O)c1ccccc1C(F)(F)F)c1ncc(C#CC2CC2)cc1Cl` [1-008], for which the pest or weed control at 500 µg/mL (in assay [1]; in the assay on Botrytis cinerea; in the assay with Sclerotinia sclerotiorum) was at least 70% throughout. Further, the inhibition of growth at 100 µg/mL in the assay on Asperaillus niger was at least 50%. The pest or weed control at 100 µg/mL in assay [2] and in assay [3] was at least 50% in each case.

As to `O=C(NCC(F)(F)c1ncc(C#CC2CC2)cc1Cl)c1ccccc1C(F)(F)F` [1-005], the pest or weed control at 500 µg/mL (in assay [1]; in the assay on Botrytis cinerea; with Sclerotinia sclerotiorum) was at least 70% in each case. Besides, the inhibition of growth at 100 µg/mL in the assay with Asperaillus niger is at least 50%. The pest or weed control at 100 µg/mL in assay [2] and in assay [3] was at least 50% each time.

On to `Cn1cc(C(=O)NCCc2ncc(C#CC3CC3)cc2Cl)c(C(F)F)n1` [8-001], for which the pest or weed control at 500 µg/mL (in assay [1]; with Botrytis cinerea; with Sclerotinia sclerotiorum) was at least 70% each time. Also, the inhibition of growth at 100 µg/mL in the assay with Asperaillus niger is at least 50%. For the same compound, the pest or weed control at 100 µg/mL in assay [2] and in assay [3] was at least 50% each time.

As to `CC(CNC(=O)c1ccccc1C(F)(F)F)c1ncc(C#CC2CC2)cc1Cl` (stereo not drawn) [1-007, N-[2-[3-chloro-5-(cyclopropylethynyl)pyridin-2-yl]propyl]-2-(trifluoromethyl)benzamide], the pest or weed control at 500 µg/mL (in assay [1]; with Botrytis cinerea; with Sclerotinia sclerotiorum) was at least 70% each time. Also, the inhibition of growth at 100 µg/mL in the assay with Asperaillus niger was at least 50%. Besides, the pest or weed control at 100 µg/mL in assay [2] and in assay [3] was at least 50% in each case.

Turning to `COC(c1ncc(C#CC(C)(C)C)cc1Cl)C(C)NC(=O)c1ccccc1C(F)(F)F` (stereo not drawn) [1-025], the pest or weed control at 500 µg/mL (in assay [1]; in the assay on Botrytis cinerea; in the assay on Sclerotinia sclerotiorum) was at least 70% each time. For the same compound, the inhibition of growth at 100 µg/mL with Asperaillus niger is at least 50%. Also, the pest or weed control at 100 µg/mL in assay [2] and in assay [3] was at least 50% in each case.

As to `COC(c1ncc(C#CC2CC2)cc1Cl)C(C)NC(=O)c1ccccc1C(F)(F)F` (stereo not drawn) [1-024], the pest or weed control at 500 µg/mL (in assay [1]; in the assay on Botrytis cinerea; in the assay on Sclerotinia sclerotiorum) was at least 70% in each case. Besides, in the assay with Asperaillus niger, the inhibition of growth at 100 µg/mL was at least 50%. Also, the pest or weed control at 100 µg/mL in assay [2] and in assay [3] was at least 50% each time.
